Structures can show the parent of a compound that is named as a salt.

The first assay has as its target AMPK. The experiment in a line: AMPK activation, enzyme-linked immunosorbent assay. As to conditions: compounds of Table 1 (Table 6). The assay is classed as biochemical.
In the case of `CC(C)(C)OC(=O)N1CC[C@@H](NC(=O)c2cc3cc(OC4CCN(c5ccc(C(F)(F)F)cc5)CC4)ccc3o2)C1` [1-120, (R)-tert-butyl 3-(5-(1-(4-(trifluoromethyl)phenyl)piperidin-4-yloxy)benzofuran-2-carboxamido)pyrrolidine-1-carboxylate], the EC50 was in the range of 1000 to 5000 nM.
On the same count and under the same terms, the same measure for `FC(F)(F)c1ccc(N2CCC(Oc3ccc4c(c3)CCC4NC3CCNCC3)CC2)cc1` (centres unmarked) [1-157, N-(5-(1-(4-(trifluoromethyl)phenyl)piperidin-4-yloxy)-2,3-dihydro-1H-inden-1-yl)piperidin-4-amine]: 1000 to 5000 nM.
On the same count and under the same terms, the same measure for `N#Cc1ccc(CN2CCC(NC(=O)c3ccc(OC4CCN(c5ccc(C(F)(F)F)cc5)CC4)cn3)CC2)cc1` [1-4, N-(1-(4-cyanobenzyl)piperidin-4-yl)-5-(1-(4-(trifluoromethyl)phenyl)piperidin-4-yloxy)picolinamide]: under 100 nM; for `O=C(N[C@@H]1CCN(Cc2ccccn2)C1)c1cc2cc(OC3CCN(c4ccc(C(F)(F)F)cc4)CC3)ccc2o1` [1-124, (R)-N-(1-(pyridin-2-ylmethyl)pyrrolidin-3-yl)-5-(1-(4-(trifluoromethyl)phenyl)piperidin-4-yloxy)benzofuran-2-carboxamide]: 1000 to 5000 nM.
On the same count and under the same terms, for `O=C(NC1CCNCC1)c1cc2ccc(OC3CCN(c4ccc(OC(F)(F)F)cc4)CC3)cc2o1` [1-83, N-(piperidin-4-yl)-6-(1-(4-(trifluoromethoxy)phenyl)piperidin-4-yloxy)benzofuran-2-carboxamide] the value was 100 to 500 nM; for `COC(=O)c1ccc(CN2CCC(NC(=O)c3ccc(OC4CCN(c5ccc(C#N)cc5)CC4)cn3)CC2)cc1` [1-7, methyl 4-((4-(5-(1-(4-cyanophenyl)piperidin-4-yloxy)picolinamido)piperidin-1-yl)methyl)benzoate], under 100 nM; for `N#Cc1ccc(CN2CC[C@H](NC(=O)c3ccc(OC4CCN(c5ccc(C(F)(F)F)cc5)CC4)cn3)C2)cc1` [1-31, (S)-N-(1-(4-cyanobenzyl)pyrrolidin-3-yl)-5-(1-(4-(trifluoromethyl)phenyl)piperidin-4-yloxy)picolinamide], under 100 nM.
For `O=C(N[C@@H]1CCN(S(=O)(=O)c2cccnc2)C1)c1cc2cc(OC3CCN(c4ccc(C(F)(F)F)cc4)CC3)ccc2o1` [1-126, (R)-N-(1-(pyridin-3-ylsulfonyl)pyrrolidin-3-yl)-5-(1-(4-(trifluoromethyl)phenyl)piperidin-4-yloxy)benzofuran-2-carboxamide], the EC50 is 1000 to 5000 nM.
Still for that read-out and setting: the same measure for `O=C(NC1CCN(Cc2ccncc2)CC1)c1cc2cc(OC3CCN(c4ccc(OC(F)(F)F)cc4)CC3)ccc2s1` [1-137, N-(1-(pyridin-4-ylmethyl)piperidin-4-yl)-5-(1-(4-(trifluoromethoxy)phenyl)piperidin-4-yloxy)benzo[b]thiophene-2-carboxamide]: under 100 nM.
The same measure, in the same setting: for `CC(C)(C)OC(=O)N1CCC(NC(=O)c2cc3ccc(OC4CCN(c5ccc(OC(F)(F)F)cc5)CC4)cc3o2)CC1` [1-81, tert-butyl 4-(6-(1-(4-(trifluoromethoxy)phenyl)piperidin-4-yloxy)benzofuran-2-carboxamido)piperidine-1-carboxylate] the value was 100 to 500 nM; for `O=C(NC1CCN(S(=O)(=O)c2cccnc2)CC1)c1cc2ccc(OC3CCN(c4ccc(C(F)(F)F)cc4)CC3)cc2o1` [1-106, N-(1-(pyridin-3-ylsulfonyl)piperidin-4-yl)-6-(1-(4-(trifluoromethyl)phenyl)piperidin-4-yloxy)benzofuran-2-carboxamide], 100 to 500 nM; for `O=C(NC1CCN(Cc2ccccn2)CC1)c1cc2ccc(OC3CCN(c4ccc(OC(F)(F)F)cc4)CC3)cc2o1` [1-92, N-(1-(pyridin-2-ylmethyl)piperidin-4-yl)-6-(1-(4-(trifluoromethoxy)phenyl)piperidin-4-yloxy)benzofuran-2-carboxamide], 500 to 1000 nM.
Still for that read-out and setting: the same measure for `CC(C)(C)OC(=O)N1CCC(NC(=O)c2sc3cc(OC4CCN(c5ccc(C(F)(F)F)cc5)CC4)ccc3c2Cl)CC1` [1-147, tert-butyl 4-(3-chloro-6-(1-(4-(trifluoromethyl)phenyl)piperidin-4-yloxy)benzo[b]thiophene-2-carboxamido)piperidine-1-carboxylate]: 1000 to 5000 nM; for `O=C(N[C@@H]1CCNC1)c1ccc(OC2CCN(c3ccc(C(F)(F)F)cc3)CC2)cn1` [1-24, (R)-N-(pyrrolidin-3-yl)-5-(1-(4-(trifluoromethyl)phenyl)piperidin-4-yloxy)picolinamide]: 5000 to 10000 nM.
Compound `O=C(NC1CCN(Cc2ccncc2)CC1)c1ccc(OC2CCN(c3ccc(C(F)(F)F)cc3)CC2)nc1` [1-10, N-(1-(pyridin-4-ylmethyl)piperidin-4-yl)-6-(1-(4-(trifluoromethyl)phenyl)piperidin-4-yloxy)nicotinamide] registered an EC50 of under 100 nM.

Still in this assay, the particulars now being: compounds of Table 1 (Table 6), formate salt.
Regarding `O=C(NC1CCN(Cc2ccncc2)CC1)c1cc2cc(OC3CCN(c4ccc(C(F)(F)F)cc4)CC3)ccc2o1` [1-105, N-(1-(pyridin-4-ylmethyl)piperidin-4-yl)-5-(1-(4-(trifluoromethyl)phenyl)piperidin-4-yloxy)benzofuran-2-carboxamide, formate salt], the EC50 was under 100 nM.

Staying with this assay, now noted: compounds of Table 2 (Table 7).
In turn, `Cn1cnc(CN2CCC(NC(=O)c3ccc4[nH]c5c(c4c3)CN(Cc3ccc(C(F)(F)F)cc3)CC5)CC2)c1` [2-53, N-(1-((1-methyl-1H-imidazol-4-yl)methyl)piperidin-4-yl)-2-(4-(trifluoromethyl)benzyl)-2,3,4,5-tetrahydro-1H-pyrido [4,3-b]indole-8-carboxamide] showed an EC50 of 10000 to 50000 nM.
The same measure, in the same setting: for `O=C(NC1CCN(Cc2ccc(C(F)(F)F)cc2)CC1)c1ccc2[nH]c3c(c2c1)CN(Cc1ccc(C(F)(F)F)cc1)CC3` [2-13, N-(1-(4-trifluoromethyl-benzyl)piperidin-4-yl)-2-(4-(trifluoro-methyl)benzyl)-2,3,4,5-tetrahydro-1H-pyrido[4,3-b]indole-8-carboxamide] the value was under 500 nM; for `N#Cc1ccc(S(=O)(=O)N2CCC(NC(=O)c3ccc4[nH]c5c(c4c3)CN(Cc3ccc(C(F)(F)F)cc3)CC5)CC2)cc1` [2-21, N-(1-(4-cyanophenyl-sulfonyl)piperidin-4-yl)-2-(4-(trifluoro-methyl)benzyl)-2,3,4,5-tetrahydro-1H-pyrido[4,3-b]indole-8-carboxamide], 500 to 1000 nM.
Same read-out and setting: the same measure for `O=C(NC1CCN(C(=O)c2ccc(C(F)(F)F)cc2)CC1)c1ccc2[nH]c3c(c2c1)CN(c1ccc(F)cc1)CC3` [2-41, 2-(4-fluorophenyl)-N-(1-(4-(trifluoromethyl)benzoyl)piperidin-4-yl)-2,3,4,5-tetrahydro-1H-pyrido[4,3-b]indole-8-carboxamide]: 10000 to 50000 nM; for `O=C(NC1CCN(S(=O)(=O)c2cccnc2)CC1)c1ccc2[nH]c3c(c2c1)CN(Cc1ccc(C(F)(F)F)cc1)CC3` [2-22, N-(1-(pyridin-3-ylsulfonyl)piperidin-4-yl)-2-(4-(trifluoromethyl)benzyl)-2,3,4,5-tetrahydro-1H-pyrido[4,3-b]indole-8-carboxamide]: 500 to 1000 nM.

The assay is the same for the next values; noted with them: compounds of Table 3 (Table 8).
The compound `N#Cc1ccc(CN2CCC(NC(=O)c3ccc(C(=O)N4CCN(c5ccc(Cl)cc5)CC4)cc3)CC2)cc1` [3-29, 4-(4-(4-chlorophenyl)piperazine-1-carbonyl)-N-(1-(4-cyanobenzyl)piperidin-4-yl)benzamide] came in with an EC50 of 10000 to 100000 nM.
The same measure, in the same setting: the same measure for `N#Cc1ccc(CN2CCC(NC(=O)c3ccc4c(c3)CN(Cc3ccc(C#N)cc3)CC4)CC2)cc1` [3-37, 2-(4-cyanobenzyl)-N-(1-(4-cyanobenzyl)piperidin-4-yl)-1,2,3,4-tetrahydroisoquinoline-7-carboxamide]: under 100 nM.

Staying with this assay, now noted: compounds of Table 4 (Table 9).
`N#Cc1ccc(CN2CCC(NC(=O)c3ccc(C(=O)N4CCN(Cc5ccc(F)cc5)CC4)cn3)CC2)cc1` [4-2, N-(1-(4-cyanobenzyl)piperidin-4-yl)-5-(4-(4-fluorobenzyl)piperazine-1-carbonyl)picolinamide] showed an EC50 of under 500 nM.

Still in this assay, the particulars now being: compounds of Table 5 (Table 10).
For `O=C(NC1CCN(Cc2ccc(Cl)cc2)CC1)c1ccc(OC2CCN(Cc3ccc(F)c(F)c3)CC2)c(F)c1` [5-71, N-(1-(4-chlorobenzyl)piperidin-4-yl)-4-(1-(3,4-difluorobenzyl)piperidin-4-yloxy)-3-fluorobenzamide], the EC50 was under 1000 nM.
`COc1cc(C(=O)NC2CCN(Cc3ccccc3)CC2)ccc1OC1CCN(c2ccco2)CC1` [5-12, N-(1-benzylpiperidin-4-yl)-3-methoxy-4-(1-(furan-2-yl)piperidin-4-yloxy)benzamide] had an EC50 of 1000 to 10000 nM.
`O=C(NC1CCN(Cc2ccccc2)CC1)c1cccc(OC2CCN(c3ccncc3)CC2)c1` [5-53, N-(1-benzylpiperidin-4-yl)-3-(1-(pyridin-4-yl)piperidin-4-yloxy)benzamide]: the EC50 is 10000 to 20000 nM.
Still for that read-out and setting: for `COc1cc(C(=O)NC2CCN(Cc3ccccc3)CC2)ccc1OC1CCN(Cc2ccccc2)CC1` [5-2, N-(1-benzylpiperidin-4-yl)-4-(1-benzylpiperidin-4-yloxy)-3-methoxybenzamide] the value was under 1000 nM; for `O=C(NC1CCN(Cc2ccncc2)CC1)c1cccc(OC2CCN(c3ccc(C(F)(F)F)cc3)CC2)c1` [5-87, N-(1-(pyridin-4-ylmethyl)piperidin-4-yl)-3-(1-(4-(trifluoromethyl)phenyl)piperidin-4-yloxy)benzamide], under 1000 nM; for `O=C(NC1CCN(Cc2ccccc2)CC1)c1cc(Cl)c(OC2CCN(Cc3ccc(Cl)cc3)CC2)c(Cl)c1` [5-75, N-(1-benzylpiperidin-4-yl)-3,5-dichloro-4-(1-(4-chlorobenzyl)piperidin-4-yloxy)benzamide], under 1000 nM.
The same measure, in the same setting: for `O=C(NC1CCN(Cc2ccccc2)CC1)c1ccc(OC2CCN(Cc3ccc(F)cc3)CC2)c(Cl)c1` [5-19, N-(1-benzylpiperidin-4-yl)-3-chloro-4-(1-(4-fluorobenzyl)piperidin-4-yloxy)benzamide] the value was under 1000 nM; for `Cc1ccc(CN2CCC(Oc3ccc(C(=O)NC4CCN(Cc5ccc(F)cc5)CC4)cc3Cl)CC2)cc1` [5-68, 3-chloro-N-(1-(4-fluorobenzyl)piperidin-4-yl)-4-(1-(4-methylbenzyl)piperidin-4-yloxy)benzamide], under 1000 nM.

One may read the EC50 as the concentration giving half of the maximal effect.
